Experimental data reported in patent US20230165772A1, “STABILIZED COSMETIC COMPOSITIONS WITH N, N'-DI-ACETYL CYSTINE” (Conopco, Inc., d/b/a UNILEVER, priority 2020, published 2023).
Entries after “also recorded” stand apart in the source; their conditions may differ. Values belong to the compound of their own block, whether it stands above or below them.

What was measured:
[1] = Odor and H2S generation of 4-alkylresorcinol solutions during storage; format: physicochemical; conditions: as stabilizer of 4-substituted resorcinols
Experimental: (§1) Samples were prepared by dissolving 4-hexylresorcinol (HR) (200 mg) or 4-ethylresorcinol (ER) (200 mg) in DI water:butylene glycol (4:1; 20 ml) to generate a clear colorless homogeneous solution. A portion of each solution (5 ml) was added to a 20 ml scintilation vial containing either niacinamide (B3) (50 mg), NDAC (N,N′-diacetyl-L-cystine) (50 mg), NACys (N-acetyl-L-cysteine) (50 mg), B3 (50 mg)+NDAC (50 mg) or B3 (50 mg)+NACys (50 mg). A hydrogen sulfide (H2S) test strip (Sigma) was placed above the sample solution and the samples sealed. Odor and H2S generation (unchanged test strip white color=no H2S generated; changed test strip brown/black color=H2S generated) were monitored for 2 weeks at R.T. (about 20 to about 22° C.).

[2] = Color of 4-alkylresorcinol solutions after storage (visual appearance and L*a*b*, Labscan XE); format: physicochemical
Experimental: as §1
After 2 weeks of storage at R.T. (about 20 to about 22° C.), the color of each solution was assessed visually. Additionally, L*a*b* measurements determined experimentally using a Labscan XE instrument (Hunter Associates Labs Inc., Reston, Va.) and processed with Universal Software (version 4.10). The L* parameter measures darkness and lightness and ranges from black (L*=0) to white (L*=100). The a* parameter measures color content and intensity ranging from green (a*<0) to neutral grey (a*=0) to red (a*>0). The b* parameter also measures color content and intensity ranging from blue (b*<0) to neutral grey (b*=0) to yellow (b*>0).

[3] = HPLC quantitation of 4-hexylresorcinol (HR) remaining after storage; format: physicochemical
Experimental: The amount of 4-hexylresorcinol (HR) or 4-ethylresorcinol (ER) present in each of the samples used for the color measurements was quantitated after 2 weeks @ R.T. (˜20-22° C.) by high performance liquid chromatography (HPLC). A sample aliquot (100 uL) from each of the color measurement solutions was diluted with DI water:acetonitrile (1:1, 900 uL) to generate test samples (1 ml). An aliquot (10 uL) from each test sample was injected into a Waters 2695 Separations Module, chromatographed and separated on a Restek Pinnacle DB C18 (5 μm, 4.6×150 mm) column operated at 30° C. and the 4-alkylresorcinols monitored using a Waters 2996 Photodiode Array Detector set @ 281 nm. […] Standard control samples of HR at 1×, 5×higher and 5×lower concentrations were prepared fresh and immediately analysed; standard curves were generated within the test sample range and linearity was confirmed.
All samples were analyzed in duplicate and the mean value reported. The amount of 4-alkylresorcinol present for each test sample after 2 weeks was determined by measuring the chromatographic peak area under the curve @ 281 nm for HR and expressed as the percent ratio over the corresponding chromatographic peak area under the curve @ 281 nm for the freshly prepared control sample.

[4] = biologically acceptable vehicle, neutral pH range; cited from earlier work
[5] = freshly prepared solution of HR

sulfurous odor generation by the stabilizer (in words) [1]: sulfurous odor generating
SMILES: CCOC(=O)[C@@H](N)CSSC[C@H](N)C(=O)OCC [DEC, Cystine diethyl ester]

color of freshly prepared solution [2, 5]: colorless
decomposition of HR upon HPLC analysis [3, 5]: no decomposition
SMILES: CCCCCCc1ccc(O)cc1O [HR, 4-hexylresorcinol]

stabilizing resorcinol derivatives (in words) [3]: effective
SMILES: CC(=O)N[C@@H](CS)C(=O)O [NACys, N-acetyl-L-cysteine]
sulfurous odor generation by the stabilizer (in words) [1]: generates sulforous odor; also recorded: sulfurous odor generating; also recorded: upleasant sulfurous odor

prevention of color formation / discoloration (in words) ([2]; after 2 weeks at R.T., in the presence or absence of B3): effective
sulfurous odor generation by the stabilizer (in words) [1]: no sulfurous odor generation
SMILES: CC(=O)N[C@@H](CSSC[C@H](NC(C)=O)C(=O)O)C(=O)O [NDAC, N,N′-diacetyl-L-Cystine]

SMILES: N[C@@H](CSSC[C@H](N)C(=O)O)C(=O)O [cystine]
solubility [4]: extremely low
